Data taken from US10188754B2, “Compositions and methods for chemical exchange saturation transfer (CEST) based magnetic resonance imaging (MRI)” (THE JOHNS HOPKINS UNIVERSITY, priority 2013, dated 2019).
Where “and” joins values, the source holds several entries; their conditions need not be identical. Identical values can stand only once. Like-named read-outs stand apart in the source and are kept apart here. Blank lines part the entries; values can stand above or below the compound they belong to.

What was measured:
[1] = 48.5 tM iopamidol; cited from earlier work
[2] = 10 mM, pH 7.3-7.4, 37° C.
Procedure: The samples were kept at 37° C. during imaging. […] TR=15 s, TE=8 ms, matrix size=64×32, slice thickness=3 mm.
The relaxation parameters for each fit were: R1w=0.26 s^−1, R2w=0.43 s-1, R1s=0.71 s^−1, R2s=39 s^−1. These were determined by fitting the direct water saturation line for PBS and were fixed for subsequent fits of each compound with the exchange rate allowed to vary. All data was processed using Python, Scipy, and Numpy (www.python.org, scipy.org, and numpy.scipy.org, respectively).

[3] = assay type: physicochemical; conditions: 10 mM, pH 7.3-7.4, tsat = 3 sec, ω1 = 3.6 μT, 37° C.
[4] = in vivo; cited from earlier work
[5] = pH 7.1-7.4, B1=3.6 μT, Tsat=3 s, 37° C., 11.7 T
Procedure: The solutions were placed into 1 mm glass capillaries and assembled in a holder for CEST MR imaging. They were kept at 37° C. during imaging.
CEST contrast was quantified using MTRasym=[S(−Δω)−S(+Δω))]/S0 for phantom and 1−S(+Δω))/S(−Δω) in vivo to increase the temporal resolution and reduce the motion where S(+Δω) represents water signal intensity with a saturation pulse applied at the frequency+Δω and S0 represents the water signal without a saturation pulse.

[6] = assay type: in vivo, mouse; conditions: mice, i.v., 9.3 ppm, 7.2 μT
From the text: In particular, images consisting of a single axial slice containing both kidneys were collected. Because the B0 inhomogeneity was less than 200 Hz for these animals, a two-point collection scheme was used to limit the scan time, which is also allowed by the use of the 7.2 μT field strength. […] A Z-spectrum was acquired before injection. […] According to the initial results in FIGS. 4F-4G, the in vivo data collection scheme was modified in order to improve the kinetic data for compound 1 in the kidney. […] In vivo images were acquired on a Bruker Biospec 11.7 T horizontal bore MR scanner, with one axial slice of 1.5 mm thickness obtained through the medulla of both kidneys. […] The BALB/c mice (n=2) weighing 20-25 g (Charles River Laboratories, Wilmington, Mass.) were maintained under specific pathogen free conditions in the animal facility of Johns Hopkins University. […] Breath rate was monitored throughout in vivo MRI experiments using a respiratory probe. […] BALB/c mice weighing 20-25 g (Charles River Laboratories, Wilmington, Mass.) were maintained under specific pathogen free conditions in the animal facility of Johns Hopkins University. […] Breath rate was monitored throughout in vivo MRI experiments using a respiratory probe. A 60 μL, volume of a 0.25 M salicylic acid solution in PBS (pH 7) was slowly injected via a catheter into the tail vein. […]

[7] = QUESP/QUEST determination of ksw of anthranilic acid analogs; assay type: physicochemical
[8] = neutral pH; cited from earlier work
[9] = QUESP measurement of proton exchange rate (ksw) of salicylic acid; assay type: physicochemical; conditions: 25 mM, pH 7.0, QUESP
From the text: The parameters for all fitting were: R1w=0.3, R2w=0.6, R1s=0.71, R2s=39, Tsat=3s.

[10] = assay type: physicochemical; conditions: 25 mM, pH 7.0-7.4, tsat=3 sec, ω1=3.6 μT, 37° C., 11.7 T
Procedure: 25 mM salicylic acid analogs (4-11) were made at pH 7.1-7.4 and tested with the phantom condition as described above. The Z-spectra were obtained by using Tsat=3 sec, ω1=3.6 μT at 37° C. […] CEST contrast was quantified by MTRasym=(S−Δω−S+Δω))/S0 after a voxel-by-voxel B0 correction, with characterized mean Z-spectra and MTRasym spectra for sample ROIs plotted and the typical results were summarized in FIG. 3A.

kex ([2]; Table 4): 580 s⁻¹ | Signal (ppm) ([3]; Table 4): 10.5 ppm
Compound: O=C(O)c1cc(Br)cc(Br)c1O [Compound 27, 3,5-Dibromosalicylic acid]

kex ([2]; Table 5): 550 s⁻¹ | Signal (ppm) ([3]; Table 5): 6.3 ppm
Compound: CS(=O)(=O)Nc1ccc(N)cc1C(=O)O [Compound 38]

kex ([2]; Table 6): 460 s⁻¹ | Signal (ppm) ([3]; Table 6): 9.8 ppm
Compound: O=C(O)c1cc(C(=O)O)c(O)cc1O [Compound 43, 4,6-dihydroxyisophthalic acid]

kex ([2]; Table 5): 190 s⁻¹ | Signal (ppm) ([3]; Table 5): 9.3 ppm
Compound: O=C(O)c1ccccc1NC(=O)C(F)(F)F [Compound 41]

kex ([2]; Table 4): 310 s⁻¹ | Signal (ppm) ([3]; Table 4): 10.8 ppm
Compound: O=C(O)c1cc(I)cc(I)c1O [Compound 28]

The next lines start with the compound.

Compound: C[C@H](O)C(=O)Nc1c(I)c(C(=O)NC(CO)CO)c(I)c(C(=O)NC(CO)CO)c1I [iopamidol]
optimal time to observe the contrast [1]: 45 min

Compound: O=C(O)c1c(O)cccc1O [Compound 22, 2,6-dihydroxybenzoic acid]
kex ([2]; Table 3): 30 s⁻¹ | Signal (ppm) ([3]; Table 3): 9.3 ppm

Compound: O=C(O)c1ccc(C(=O)O)c(O)c1 [Compound 18]
kex ([2]; Table 2): 420 s⁻¹ | Signal (ppm) ([3]; Table 2): 9.3 ppm

Compound: O=C(O)c1ccccc1Nc1cccc(C(F)(F)F)c1 [Compound 5, flufenamic acid, reference compound]
LD50 [4]: 150 mg/kg

Compound: O=C(O)c1ccc([N+](=O)[O-])cc1O [Compound 19, 2-hydroxy-4-nitrobenzoic acid]
kex ([2]; Table 2): 1500 s⁻¹ | Signal (ppm) ([3]; Table 2): 9.5 ppm

Compound: O=C(O)c1ccc2ccccc2c1O [Compound 29, 1-Hydroxy-2-naphthoic acid]
kex ([2]; Table 4): 220 s⁻¹ | Signal (ppm) ([3]; Table 4): 10.5 ppm

Compound: O=C(O)c1ccccc1O [Compound 1, salicylic acid]
CEST frequency / labile proton chemical shift from water [5]: 9.3 ppm | kex ([2]; Table 1): 400 s⁻¹ | average CEST contrast over the whole kidney [6]: 6.0±0.8% and 6% | ksw ([7]; pH 6.5): 2.4 kHz | ksw ([7]; pH 7.8): 0.4 kHz | exchange rate (previously reported) [8]: 600 s⁻¹ | proton exchange rate with water (ksw) [9]: 1.2 ks^−1 | chemical shift of CEST contrast (exchangeable proton) from water [10]: 9.3 ppm | Signal (ppm) ([3]; Table 1): 9.3 ppm

Compound: O=C(O)c1ccc(O)cc1O [2,4-Dihydroxy benzoic acid]
LD50 [4]: 800 mg/kg

Compound: O=C(O)c1cc(Cl)cc(Cl)c1O [Compound 26]
kex ([2]; Table 4): 1070 s⁻¹ | Signal (ppm) ([3]; Table 4): 10.3 ppm

Compound: Nc1ccc(C(=O)O)c(O)c1 [4-amino salicylic acid]
LD50 [4]: 4,250 mg/kg

Compound: Nc1cccc(C(=O)O)c1O [Compound 33, 3-aminosalicylic acid]
kex ([2]; Table 4): 410 s⁻¹ | Signal (ppm) ([3]; Table 4): 9.0 ppm
